Data from publication PMC5074515 (PLoS ONE, 2016).
In brackets after ≈: the same amount, converted by molar mass. Read-outs that look alike come from different tables or passages of the source.

Experiments:
Mtb H37Ra (ATCC 25177) = experiment: In vitro screen versus Mtb H37Ra (Alamar blue microdilution broth assay, MIC99); type: cell-based, M. tuberculosis; details: Mycobacterium tuberculosis; lowest drug concentration that completely inhibited growth; read-out: Mtb H37Ra MIC99
Experimental: The initial screening set and selected other compounds were tested for their inhibitory activity against Mtb H37Ra (ATCC 25177) and MAC NJ211 strains. Screening was performed at 1.28 and 12.8 μg/mL in Middlebrook 7H9 broth supplemented with 0.2% glycerol and ADC enrichment using a colorimetric (Alamar blue) microdilution broth assay by reported methods.[15]

Mtb H37Rv = experiment: In vitro qHTS assay against Mtb H37Rv (IC90); type: cell-based, M. tuberculosis; details: for IC90 / Mtb H37Rv IC90: concentration that inhibits bacterial growth by 90%; for IC90: read-out: Mtb H37Rv IC90
[1] = Mycobacterium tuberculosis, H37RV

Compound | IC90 (Mtb H37Rv; [1]) | melting point | also measured
CC(=O)O[C@H]1C(=O)[C@@]2(C)[C@H]([C@H](OC(=O)c3ccccc3)[C@]3(O)C[C@H](OC(=O)[C@H](O)[C@@H](NC(=O)c4ccccc4)c4ccccc4)C(C)=C1C3(C)C)[C@]1(OC(C)=O)CO[C@@H]1C[C@@H]2O [Compound 14, Taxol] |  |  | MIC99 (Mtb H37Ra (ATCC 25177)): 16 µg/mL (≈ 18.7 µM)
CCN(CC)CCNC(=O)CC1=C(C)/C(=C/c2ccc(SC)cc2)c2ccc(F)cc21 [Compound 20, (Z)-N-(2-(Diethylamino)ethyl)-2-(5-fluoro-2-methyl-1-(4-(methylthio)benzylidene)-1H-inden-3-yl)acetamide] | 3.59 ± 0.06 µM | 98 to 100 °C | 
CCN(CC)CCCNC(=O)CC1=C(C)/C(=C/c2ccc(SC)cc2)c2ccc(F)cc21 [Compound 21, (Z)-N-(3-(Diethylamino)propyl)-2-(5-fluoro-2-methyl-1-(4-(methylthio)benzylidene)-1H-inden-3-yl)acetamide] | 4.36 ± 0.07 µM | 78 to 81 °C | 
CSc1ccc(/C=C2/C(C)=C(CC(=O)NCCCN3CCCCC3C)c3cc(F)ccc32)cc1 (stereo not shown) [Compound 25, (Z)-2-(5-Fluoro-2-methyl-1-(4-(methylthio)benzylidene)-1H-inden-3-yl)-N-(3-(2-methylpiperidin-1-yl)propyl)acetamide] | 5.41 ± 0.11 µM | 84 to 86 °C | 
CSc1ccc(/C=C2/C(C)=C(CC(=O)NCCC3CCCN3C)c3cc(F)ccc32)cc1 (stereo not shown) [Compound 27, (Z)-2-(5-Fluoro-2-methyl-1-(4-(methylthio)benzylidene)-1H-inden-3-yl)-N-(2-(1-methylpyrrolidin-2-yl)ethyl)acetamide] | 4.34 ± 0.16 µM |  | 
CCN1CCC[C@H]1CNC(=O)CC1=C(C)/C(=C/c2ccc(SC)cc2)c2ccc(F)cc21 [Compound 28, (S,Z)-N-((1-Ethylpyrrolidin-2-yl)methyl)-2-(5-fluoro-2-methyl-1-(4-(methylthio)benzylidene)-1H-inden-3-yl)acetamide] | 3.98 ± 0.03 µM | 74 to 76 °C | 
CSc1ccc(/C=C2/C(C)=C(CC(=O)N3CCC[C@H]3CN3CCCC3)c3cc(F)ccc32)cc1 [Compound 29, (S,Z)-2-(5-Fluoro-2-methyl-1-(4-(methylthio)benzylidene)-1H-inden-3-yl)-1-(2-(pyrrolidin-1-ylmethyl)pyrrolidin-1-yl)ethanone] | 4.06 ± 0.03 µM | 101 to 104 °C | 
CSc1ccc(/C=C2/C(C)=C(CC(=O)N3CCC(N4CCCCC4)CC3)c3cc(F)ccc32)cc1 [Compound 30, (Z)-1-([1,4'-Bipiperidin]-1'-yl)-2-(5-fluoro-2-methyl-1-(4-(methylthio)benzylidene)-1H-inden-3-yl)ethanone] | 2.75 ± 0.02 µM | 145 to 148 °C | 
CSc1ccc(/C=C2/C(C)=C(CC(=O)N3CCN(CCCN(C)C)CC3)c3cc(F)ccc32)cc1 [Compound 31, (Z)-1-(4-(3-(Dimethylamino)propyl)piperazin-1-yl)-2-(5-fluoro-2-methyl-1-(4-(methylthio)benzylidene)-1H-inden-3-yl)ethanone] | 9.55 ± 0.31 µM | 131 to 134 °C | 
CSc1ccc(/C=C2/C(C)=C(CC(=O)N3CCN(c4ccncc4)CC3)c3cc(F)ccc32)cc1 [Compound 32, (Z)-2-(5-Fluoro-2-methyl-1-(4-(methylthio)benzylidene)-1H-inden-3-yl)-1-(4-(pyridin-4-yl)piperazin-1-yl)ethanone] | 3.07 ± 0.04 µM | 171 to 174 °C | 
CSc1ccc(/C=C2/C(C)=C(CC(=O)NCCCn3ccnc3)c3cc(F)ccc32)cc1 [Compound 33, (Z)-N-(3-(1H-Imidazol-1-yl)propyl)-2-(5-fluoro-2-methyl-1-(4-(methylthio)benzylidene)-1H-inden-3-yl)acetamide] | 1.18 ± 0.01 µM | 103 to 105 °C | 
CSc1ccc(/C=C2/C(C)=C(CC(=O)NCc3ccccc3)c3cc(F)ccc32)cc1 [Compound 34, (Z)-N-Benzyl-2-(5-fluoro-2-methyl-1-(4-(methylthio)benzylidene)-1H-inden-3-yl)acetamide] | > 100 µM | 171 to 174 °C | Mtb H37Rv IC90 (Mtb H37Rv): inactive
CSc1ccc(/C=C2/C(C)=C(CC(=O)NCc3ccco3)c3cc(F)ccc32)cc1 [Compound 36, (Z)-2-(5-Fluoro-2-methyl-1-(4-(methylthio)benzylidene)-1H-inden-3-yl)-N-(furan-2-ylmethyl)acetamide] | > 100 µM | 166 to 168 °C | Mtb H37Rv IC90 (Mtb H37Rv): inactive
COC(=O)[C@H](C)NC(=O)CC1=C(C)/C(=C/c2ccc(SC)cc2)c2ccc(F)cc21 [Compound 37, (S,Z)-Methyl 2-(2-(5-fluoro-2-methyl-1-(4-(methylthio)benzylidene)-1H-inden-3-yl)acetamido)propanoate] | 3.04 ± 0.1 µM | 151 to 154 °C | 
CC1=C(CC(=O)NCCN(C)C)c2cc(F)ccc2/C1=C\c1nc2ccccc2s1 [Compound 38, (Z)-2-(1-(Benzo[d]thiazol-2-ylmethylene)-5-fluoro-2-methyl-1H-inden-3-yl)-N-(2-(dimethylamino)ethyl)acetamide] | 4.75 ± 0.05 µM | 132 to 135 °C | 
CC1=C(CC(=O)N(C)CCN(C)C)c2cc(F)ccc2/C1=C\c1nc2ccccc2s1 [Compound 39, (Z)-2-(1-(Benzo[d]thiazol-2-ylmethylene)-5-fluoro-2-methyl-1H-inden-3-yl)-N-(2-(dimethylamino)ethyl)-N-methylacetamide] | 9.97 ± 0.33 µM | 103 to 106 °C | 
CCN(CC)CCNC(=O)CC1=C(C)/C(=C/c2nc3ccccc3s2)c2ccc(F)cc21 [Compound 40, (Z)-2-(1-(Benzo[d]thiazol-2-ylmethylene)-5-fluoro-2-methyl-1H-inden-3-yl)-N-(2-(diethylamino)ethyl)acetamide] | 3.47 ± 0.04 µM | 127 to 130 °C | 
CC1=C(CC(=O)NCCN2CCCC2)c2cc(F)ccc2/C1=C\c1nc2ccccc2s1 [Compound 41, (Z)-2-(1-(Benzo[d]thiazol-2-ylmethylene)-5-fluoro-2-methyl-1H-inden-3-yl)-N-(2-(pyrrolidin-1-yl)ethyl)acetamide] | 6.7 ± 0.04 µM |  | 
CCN1CCC[C@H]1CNC(=O)CC1=C(C)/C(=C/c2nc3ccccc3s2)c2ccc(F)cc21 [Compound 42, (S,Z)-2-(1-(Benzo[d]thiazol-2-ylmethylene)-5-fluoro-2-methyl-1H-inden-3-yl)-N-((1-ethylpyrrolidin-2-yl)methyl)acetamide] | 5.46 ± 0.12 µM | 168 to 171 °C | 
CC1=C(CC(=O)N2CCC[C@H]2CN2CCCC2)c2cc(F)ccc2/C1=C\c1nc2ccccc2s1 [Compound 43, (S,Z)-2-(1-(Benzo[d]thiazol-2-ylmethylene)-5-fluoro-2-methyl-1H-inden-3-yl)-1-(2-(pyrrolidin-1-ylmethyl)pyrrolidin-1-yl)ethanone] | 3.68 ± 0.11 µM | 79 to 81 °C | 
CSc1ccc(/C=C2/C(C)=C(C(C)C(=O)NCCN(C)C)c3cc(F)ccc32)cc1 (stereo not shown) [Compound 44, (Z)-N-(2-(Dimethylamino)ethyl)-2-(5-fluoro-2-methyl-1-(4-(methylthio)benzylidene)-1H-inden-3-yl)propanamide] | 13.6 ± 0.89 µM |  | fold less active against Mtb H37Rv than desmethyl analog (Mtb H37Rv; 44 vs 18): 2 fold
CSc1ccc(/C=C2/C(C)=C(C(C)C(=O)N(C)CCN(C)C)c3cc(F)ccc32)cc1 (stereo not shown) [Compound 45, (Z)-N-(2-(Dimethylamino)ethyl)-2-(5-fluoro-2-methyl-1-(4-(methylthio)benzylidene)-1H-inden-3-yl)-N-methylpropanamide] | 5.95 ± 0.06 µM |  | 
CCN(CC)CCNC(=O)C(C)C1=C(C)/C(=C/c2ccc(SC)cc2)c2ccc(F)cc21 (stereo not shown) [Compound 46, (Z)-N-(2-(Diethylamino)ethyl)-2-(5-fluoro-2-methyl-1-(4-(methylthio)benzylidene)-1H-inden-3-yl)propanamide] | 4.19 ± 0.2 µM | 75 to 77 °C | 
CCCCN(CCCC)CCCNC(=O)C(C)C1=C(C)/C(=C/c2ccc(SC)cc2)c2ccc(F)cc21 (stereo not shown) [Compound 47, (Z)-N-(3-(Dibutylamino)propyl)-2-(5-fluoro-2-methyl-1-(4-(methylthio)benzylidene)-1H-inden-3-yl)propanamide] | 1.22 ± 0.04 µM | 121 to 124 °C | 
CNCCN(C)C(=O)C(C)C1=C(C)/C(=C/c2ccc(SC)cc2)c2ccc(F)cc21 (stereo not shown) [Compound 48, (Z)-2-(5-Fluoro-2-methyl-1-(4-(methylthio)benzylidene)-1H-inden-3-yl)-N-methyl-N-(2-(methylamino)ethyl)propanamide] | 2.11 ± 0.08 µM |  | fold more active against Mtb H37Rv than corresponding analog (Mtb H37Rv; 48 vs 23, 57 vs 56, 60 vs 24): 4 fold
CSc1ccc(/C=C2/C(C)=C(C(C)C(=O)NCCN3CCCCC3)c3cc(F)ccc32)cc1 (stereo not shown) [Compound 49, (Z)-2-(5-Fluoro-2-methyl-1-(4-(methylthio)benzylidene)-1H-inden-3-yl)-N-(2-(piperidin-1-yl)ethyl)propanamide] | 1.99 ± 0.06 µM |  | 
CCN1CCC[C@H]1CNC(=O)C(C)C1=C(C)/C(=C/c2ccc(SC)cc2)c2ccc(F)cc21 (stereo partly drawn) [Compound 51, N-(((S)-1-Ethylpyrrolidin-2-yl)methyl)-2-((Z)-5-fluoro-2-methyl-1-(4-(methylthio)benzylidene)-1H-inden-3-yl)propanamide] | 2.41 ± 0.04 µM |  | 
CSc1ccc(/C=C2/C(C)=C(C(C)C(=O)N3CCN(c4ccncc4)CC3)c3cc(F)ccc32)cc1 (stereo not shown) [Compound 55, (Z)-2-(5-Fluoro-2-methyl-1-(4-(methylthio)benzylidene)-1H-inden-3-yl)-1-(4-(pyridin-4-yl)piperazin-1-yl)propan-1-one] | 2.89 ± 0.09 µM |  | 
(Z)-N-(3-(Dibutylamino)propyl)-2-(5-fluoro-2-methyl-1-(4-(methylthio)benzylidene)-1H-inden-3-yl)acetamide [Compound 22] |  |  | IC90 (Mtb H37Rv): 0.85 µM
